Results published in US7872027B2, “Low molecular weight Myc-max inhibitors” (University of Pittsburgh - Of the Commonwealth System of …, priority 2006, dated 2011).

Assays:
[1] = system: HL60 human promyelocytic leukemia cells; assay: HL60 cell growth inhibition (trypan blue cell counts); assay type: cell-based
Method: Note that all structures shown herein are drawn in their Z-isoform and some bonds have been standardized. IC50's here, as well as below for in FIGS. 2 and 3, were calculated based upon dose-response profiles on day 5 following the addition of each compound.
HL60 human promyelocytic leukemia cells were grown in RPMI medium supplemented with 10% fetal calf serum, 100 U/ml penicillin G, and 100 μg/ml streptomycin (all from Mediatech, Inc., Herndon, Va.). Rat fibroblast lines were grown under similar conditions in Dulbecco's modified minimal essential medium. To determine the effects of Myc-Max compounds on HL60 cell growth, logarithmically growing cells (>90% viability) were resuspended in fresh medium. Four (4) ml (a total of 16,000 cells) were then seeded into 6-well plates in the presence of the indicated amount of Myc-Max compound. In all cases, 10058-F4 was included as a reference compound. Daily cell counts were performed manually in triplicate on a hemacytometer using trypan blue exclusion. Viabilities exceeded 85% throughout the course of the experiment.
Each compound was initially tested for its ability to inhibit the growth of the HL60 human promyelocytic leukemia cell line, which expresses high levels of c-Myc as a result of gene amplification (Park S—H, et al. Methods Mol Biol 2004; 261:161-165 (2004)). […]

c-Myc-Max(S) heterodimer = target: T1, c-Myc-Max(S) heterodimer (Homo sapiens, UniProt P01106); assay: electrophoretic mobility shift assay (EMSA), E-box DNA binding; assay type: biochemical; settings: 60 nM each protein, 10 nM oligonucleotide
T1 construct: human Myc residues 353-439 with a GGCD extension at the C terminus; His6 (TEV-cleavable) (cleaved yes); made in house; host or cells: E. coli BL21DE3(plysS) for c-Myc; E. coli M15(pRep4) for Max
T1 sequence (P01106 368-454, one chain of several): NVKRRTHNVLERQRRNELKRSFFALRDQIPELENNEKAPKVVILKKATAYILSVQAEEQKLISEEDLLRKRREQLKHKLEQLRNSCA
Method: (§1) Equivalent amounts of nuclear extracts were incubated with the indicated concentrations of the compounds depicted in FIGS. 1-3. Following precipitation of the complexes with an anti-Max antibody, the total amount of associated c-Myc was detected by immunoblotting (top panel). As a control, the lower portion of the blot was probed with an anti-Max antibody (bottom panel). FIGS. 4B, 4C and 4D show EMSAs results. Recombinant c-Myc353-439 (which encodes the complete bHLH-ZIP dimerization domain) and full-length Max(S) were purified to homogeneity from E. coli and used at a final concentration of 60 nM in the presence of the indicated concentration of compound.
Electrophoretic mobility shift Assays (EMSAs). Experiments were performed on 8% polyacrylamide:bis-acrylamide (80:1) gels in 0.5×TBE. […]
and was synthesized by Integrated DNA Technologies Inc (Coralville, Iowa). […] Data were analyzed with BioRad Quantity One software.
The second method used to gauge the effects of 10058-F4 and its analogs on c-Myc-Max complexes relied on the use of a simple, three component electrophoretic mobility shift assay (EMSA). […] The ability of the resultant heterodimer to bind a double-stranded target oligonucleotide containing a consensus E-box motif was then assessed by PAGE. […]

c-Myc-Max complexes = target: T2, c-Myc-Max complexes (Homo sapiens, UniProt P01106); assay: co-immunoprecipitation of c-Myc and Max from HL60 nuclear extracts; assay type: biochemical; settings: 30° C. for 30 min
T2 construct: endogenous in cells; host or cells: HL60 nuclear extract
T2 sequence (P01106 whole entry, one chain of several): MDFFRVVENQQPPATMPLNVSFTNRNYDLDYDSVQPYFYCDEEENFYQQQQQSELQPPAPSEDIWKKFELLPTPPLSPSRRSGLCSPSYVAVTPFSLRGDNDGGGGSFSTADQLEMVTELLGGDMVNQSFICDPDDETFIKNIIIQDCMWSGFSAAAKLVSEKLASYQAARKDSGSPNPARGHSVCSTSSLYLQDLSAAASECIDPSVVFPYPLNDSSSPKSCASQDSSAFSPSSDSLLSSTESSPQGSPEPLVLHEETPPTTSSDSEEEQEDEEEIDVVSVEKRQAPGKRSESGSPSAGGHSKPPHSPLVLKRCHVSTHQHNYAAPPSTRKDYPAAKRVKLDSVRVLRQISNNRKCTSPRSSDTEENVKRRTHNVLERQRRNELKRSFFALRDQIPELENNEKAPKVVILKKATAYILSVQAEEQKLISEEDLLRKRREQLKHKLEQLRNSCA
Method: as §1
Nuclei from HL60 cells were prepared essentially as described previously (17). Briefly, approximately 4×10^7 washed nuclei were resuspended in 1 ml of ice cold buffer F, which contained 150 mM NaCl; 10 mM Tris-HCl, pH 7.1; 30 mM sodium pyrophosphate; 5 μM ZnCl2; 0.1% Nonidet P-40; 0.1 mM Na3VO4; 1 mM PMSF; 2.5 U/ml each of pepstatin, leupeptin, and approtinin. All reagents were from Sigma-Aldrich (St. Louis, Mo.). […]
10058-F4 analogs interfere directly with c-Myc-Max heterodimerization and DNA binding. […] To address this, the effect of each compound on c-Myc-Max association was determined in vitro by two different methods. […] The total amount of co-precipitating c-Myc protein was then assessed by immunoblotting. […]

Compound	activity in HL60 cells compared with 10058-F4 ([1]; 10058-F4 in parallel)	IC50 ([1]; Homo sapiens, HL-60, 120 h, dose-response profiles on day 5 following addition of compound, read-out: ID50, HL60 cell growth) [µM]	inhibition of E-box DNA binding by c-Myc-Max(S) (c-Myc-Max(S) heterodimer)	dissociation of c-Myc from Max (co-IP with anti-Max antibody) (c-Myc-Max complexes)
CC(C)c1ccc(/C=C2\SC(=S)N(CN3CCCCC3)C2=O)cc1 [Compound 28RH-NCN-1]	activities comparable to that of 10058-F4	–	–	–
CCc1ccc(C=C2SC(=S)NC2=O)cc1 [Compound 10058-F4, (Z,E)-5-(4-ethylbenzylidene)-2-thioxothiazolidin-4-one]	–	51	dose-dependent, although variable, inhibition	promoted the dissociation of c-Myc from Max
